Measured values reported in patent publication US8865704B2, “Wnt pathway antagonists” (Siena Biotech S.p.A., priority 2009, dated 2014).

Key:
Wnt/β-catenin pathway = assay: Wnt reporter assay (TCF-Luciferase, Firefly) in DBTRG-05MG cells; type: cell-based; settings: Homo sapiens, 24 hours after compound addition
Outline: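 DBTRG-05MG cells carrying a 4×TCF-driven firefly luciferase reporter, kept under Zeocin or Zeocin plus Hygromicin selection. Compounds added 36 hours after plating at 8 points from 60 μM to 0.185 μM (0.6% DMSO), triplicate, for 24 hours. Firefly and Renilla luminescence each expressed as % of control; IC50 from four-parameter sigmoid fit.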

DBTRG cells = assay: Soft agar anchorage independent assay; type: cell-based; settings: 504 h, colonies scored 3 weeks later, read-out: 1050 value in the soft agar assay
Description: The pharmacological activity of the compounds of the invention may be tested in vitro for growth inhibition against tumour cell lines. Such cell lines may, for example be representative of glioblastoma (such as DBTRG-05MG), or colorectal (for example DLD-1, HCT116) cancer. The different genetic background of the cancer cell will facilitate to understand to which level of the pathway the compounds work. If the cells harbour a truncated APC allele, the destruction complex activity is affected; if cells carry a gain of function mutation in the β-catenin gene, which prevents β-catenin protein degradation, this leads to constitutive activation of downstream genes. There are many assays available for testing the growth inhibition.
Soft Agar Anchorage Independent Assay
DBTRG cells were seeded into a 24-well format in the presence of carrier alone or compound (0.6% DMSO (v/v)). Each well is composed of two agar layers: the bottom layer consists of 0.6% Agar while the top has 0.35% Agar plus cells and compound. Cells (2500 per well) were incubated with 7 points dilution compound the day of the plating and the colonies were scored 3 weeks later after o/n staining with MTT solution. Imaging and counting of the colonies was done with the GelCount™ instrument (Oxford Optronix, UK). For IC50 determination the data were expressed as % of control, values were calculated using XLFit version 4.2, with a four parameters sigmoid function (XLFit model 205).

Structure (SMILES) | IC50 (Wnt/β-catenin pathway) [µM] | IC50 (DBTRG cells) [µM]
COc1ccc2[nH]c(=O)n(C[C@H]3CC[C@H](C(=O)N4CCN(C(=O)C(C)C)CC4)CC3)c(=O)c2c1 [Example 3, 3-[trans-4-(4-Isobutyryl-piperazine-1-carbonyl)-cyclohexylmethyl]-6-methoxy-1H-quinazoline-2,4-dione] | 0.3 to 30 | 0.9 to 30
CCCC(=O)N1CCN(C(=O)[C@H]2CC[C@H](Cn3c(=O)c4ccccc4n(C)c3=O)CC2)CC1 [Example 5, 3-[trans-4-(4-Butyryl-piperazine-1-carbonyl)-cyclohexylmethyl]-1-methyl-1H-quinazoline-2,4-dione] | 0.3 to 30 | 0.9 to 30
Cn1c(=O)n(C[C@H]2CC[C@H](C(=O)N3CCOCC3)CC2)c2cc(C(F)(F)F)ccc21 [Example 10, 1-Methyl-3-[trans-4-(morpholine-4-carbonyl)-cyclohexylmethyl]-5-trifluoromethyl-1,3-dihydro-benzoimidazol-2-one] | 0.3 to 30 | 0.9 to 30
O=C(C1CCC(Cn2c(=O)[nH]c3ccccc3c2=O)CC1)N1CCN(c2ccccc2)CC1 (centres unmarked) [Example 18] | 0.3 to 30 | 0.9 to 30
O=c1[nH]c2ccccc2c(=O)n1C[C@H]1CC[C@H](C(=O)N2CCN(c3ccc(F)cc3)CC2)CC1 [Example 20] | 0.3 to 30 | 0.9 to 30
COc1ccccc1N1CCN(C(=O)[C@H]2CC[C@H](Cn3c(=O)[nH]c4ccccc4c3=O)CC2)CC1 [Example 21] | 0.3 to 30 | 0.9 to 30
O=c1[nH]c2ccc(Cl)cc2c(=O)n1C[C@H]1CC[C@H](C(=O)N2CCN(c3ccccc3)CC2)CC1 [Example 26] | 0.3 to 30 | 0.9 to 30
CC(=O)N1CCN(C(=O)[C@H]2CC[C@H](Cn3c(=O)[nH]c4ccc(Cl)cc4c3=O)CC2)CC1 [Example 27] | 0.3 to 30 | 0.9 to 30
O=C(C1CCCC1)N1CCN(C(=O)[C@H]2CC[C@H](Cn3c(=O)[nH]c4ccccc4c3=O)CC2)CC1 [Example 29] | 0.3 to 30 | 0.9 to 30
O=C(c1cccs1)N1CCN(C(=O)[C@H]2CC[C@H](Cn3c(=O)[nH]c4ccccc4c3=O)CC2)CC1 [Example 37] | 0.3 to 30 | 0.9 to 30
O=C(C1CCC(Cn2c(=O)[nH]c3ccccc3c2=O)CC1)N1CCN(C(=O)C2CC2)CC1 (centres unmarked) [Example 47] | 0.3 to 30 | 0.9 to 30
O=C(c1ccco1)N1CCN(C(=O)C2CCC(Cn3c(=O)[nH]c4ccccc4c3=O)CC2)CC1 (centres unmarked) [Example 48] | 0.3 to 30 | 0.9 to 30
Cn1c(=O)n(C[C@H]2CC[C@H](C(=O)N3CCN(C(=O)C4CC4)CC3)CC2)c(=O)c2ccccc21 [Example 56] | 0.3 to 30 | 0.9 to 30
O=c1[nH]c2ccccc2c(=O)n1C[C@H]1CC[C@H](C(=O)N2CCN(c3cnccn3)CC2)CC1 [Example 57] | 0.3 to 30 | 0.9 to 30
CC(C)C(=O)N1CCN(C(=O)[C@H]2CC[C@H](Cn3c(=O)[nH]c4ccccc43)CC2)CC1 [Example 58] | 0.3 to 30 | 0.9 to 30
O=C(CC1CCCCC1)N1CCN(C(=O)[C@H]2CC[C@H](Cn3c(=O)[nH]c4ccccc4c3=O)CC2)CC1 [Example 59] | 0.3 to 30 | 0.9 to 30
O=C(C1CCC1)N1CCN(C(=O)[C@H]2CC[C@H](Cn3c(=O)[nH]c4ccccc4c3=O)CC2)CC1 [Example 60] | 0.3 to 30 | 0.9 to 30
COCC(=O)N1CCN(C(=O)[C@H]2CC[C@H](Cn3c(=O)c4cc(OC)ccc4n(C)c3=O)CC2)CC1 [Example 66] | 0.3 to 30 | 0.9 to 30
COc1ccc2c(c1)CN(C[C@H]1CC[C@H](C(=O)N3CCN(C(=O)C4CC4)CC3)CC1)C(=O)N2 [Example 71] | 0.3 to 30 | 0.9 to 30
COc1ccc2[nH]c(=O)n(C[C@H]3CC[C@H](C(=O)N4CCN(C(=O)C5CC5)CC4)CC3)c(=O)c2c1 [Example 75] | 0.3 to 30 | 0.9 to 30
COCC(=O)N1CCN(C(=O)[C@H]2CC[C@H](Cn3c(=O)[nH]c4ccc(OC)cc4c3=O)CC2)CC1 [Example 77] | 0.3 to 30 | 0.9 to 30
COc1ccc2c(c1)c(=O)n(C[C@H]1CC[C@H](C(=O)N3CCN(C(=O)C4CC4)CC3)CC1)c(=O)n2C [Example 78] | 0.3 to 30 | 0.9 to 30
O=C(C1CC1)N1CCN(C(=O)[C@H]2CC[C@H](Cn3c(=O)c4ccccc4n(CCF)c3=O)CC2)CC1 [Example 79] | 0.3 to 30 | 0.9 to 30
Cn1c(=O)n(C[C@H]2CC[C@H](C(=O)N3CCN(C(=O)C4CC4)CC3)CC2)c2ccccc21 [Example 80] | 0.3 to 30 | 0.9 to 30
COc1ccc2c(c1)c(=O)n(C[C@H]1CC[C@H](C(=O)N3CCN(C)C(=O)C3)CC1)c(=O)n2C [Example 92] | 0.3 to 30 | 0.9 to 30
COc1ccc2[nH]c(=O)n(C[C@H]3CC[C@H](C(=O)N4CCN(C(C)=O)CC4)CC3)c(=O)c2c1 [Example 99] | 0.3 to 30 | 0.9 to 30

Structure (SMILES) | IC50 (Wnt/β-catenin pathway) [µM] | IC50 (DBTRG cells) [µM]
COc1ccc2[nH]c(=O)n(C[C@H]3CC[C@H](C(=O)N4CCN(C(=O)[C@H]5CCCO5)CC4)CC3)c(=O)c2c1 [Example 109] | 0.3 to 30 | 0.9 to 30
COC(=O)N1CCN(C(=O)[C@H]2CC[C@H](Cn3c(=O)[nH]c4ccc(OC)cc4c3=O)CC2)CC1 [Example 116] | 0.3 to 30 | 0.9 to 30
COc1ccc2c(c1)c(=O)n(C[C@H]1CC[C@H](C(=O)N3CCN(C(=O)c4cncn4C)CC3)CC1)c(=O)n2C [Example 122] | 0.3 to 30 | 0.9 to 30
COc1ccc2c(c1)n(C[C@H]1CC[C@H](C(=O)N3CCN(C(=O)C4CC4)CC3)CC1)c(=O)n2C [Example 135] | 0.3 to 30 | 0.9 to 30
COc1ccc2c(c1)c(=O)n(C[C@H]1CC[C@H](C(=O)N3CCN(C(C)=O)CC3)CC1)c(=O)n2C [Example 136] | 0.3 to 30 | 0.9 to 30
COc1ccc2c(c1)c(=O)n(C[C@H]1CC[C@H](C(=O)N3CCN(C(=O)c4ccno4)CC3)CC1)c(=O)n2C [Example 146] | 0.3 to 30 | 0.9 to 30
Cc1ccc2c(n1)n(C[C@H]1CC[C@H](C(=O)N3CCN(C(=O)C4CC4)CC3)CC1)c(=O)n2C [Example 169] | 0.3 to 30 | 0.9 to 30
COC(=O)N1CCN(C(=O)[C@H]2CC[C@H](Cn3c(=O)c4cc(OC)ccc4n(C)c3=O)CC2)CC1 [Example 175] | 0.3 to 30 | 0.9 to 30
COc1ccc2c(c1)c(=O)n(C[C@H]1CC[C@H](C(=O)Nc3ccc4nc(C)oc4c3)CC1)c(=O)n2C [Example 194] | 0.3 to 30 | 
COc1ccc2c(c1)c(=O)n(C[C@H]1CC[C@H](C(=O)N3CCN(c4ccncc4)CC3)CC1)c(=O)n2C [Example 195] | 0.3 to 30 | 
CCOc1ccc2c(c1)c(=O)n(C[C@H]1CC[C@H](C(=O)Nc3ccncc3)CC1)c(=O)n2C [Example 196] | 0.3 to 30 | 
CCOc1ccc2c(c1)c(=O)n(C[C@H]1CC[C@H](C(=O)N3CCN(c4ccncc4)CC3)CC1)c(=O)n2C [Example 197] | 0.3 to 30 | 
CCOc1ccc2c(c1)c(=O)n(C[C@H]1CC[C@H](C(=O)N3CCN(C(=O)COC)CC3)CC1)c(=O)n2C [Example 198] | 0.3 to 30 | 
CCOc1ccc2c(c1)c(=O)n(C[C@H]1CC[C@H](C(=O)N3CCN(C(=O)C4CCCC4)CC3)CC1)c(=O)n2C [Example 199] | 0.3 to 30 | 
CCOc1ccc2c(c1)c(=O)n(C[C@H]1CC[C@H](C(=O)N3CCN(C(C)=O)CC3)CC1)c(=O)n2C [Example 200] | 0.3 to 30 | 
COc1ccc2c(c1)c(=O)n(C[C@H]1CC[C@H](C(=O)Nc3cccc4cccnc34)CC1)c(=O)n2C [Example 201] | 0.3 to 30 | 
CC(=O)N1CCN(C(=O)[C@H]2CC[C@H](Cn3c(=O)n(C)c4ccc(C(F)(F)F)cc43)CC2)CC1 [Example 202] | 0.3 to 30 | 
COC(=O)N1CCN(C(=O)[C@H]2CC[C@H](Cn3c(=O)n(C)c4ccc(C)nc43)CC2)CC1 [Example 203] | 0.3 to 30 | 
COCC(=O)N1CCN(C(=O)[C@H]2CC[C@H](Cn3c(=O)n(C)c4ccc(C)nc43)CC2)CC1 [Example 204] | 0.3 to 30 | 
COC(=O)N1CCN(C(=O)[C@H]2CC[C@H](Cn3c(=O)n(C)c4ccc(OC)nc43)CC2)CC1 [Example 205] | 0.3 to 30 | 
CCOc1ccc2c(c1)c(=O)n(C[C@H]1CC[C@H](C(=O)N3CCN(C(=O)c4cncn4C)CC3)CC1)c(=O)n2C [Example 206] | 0.3 to 30 | 
CC(=O)N1CCN(C(=O)[C@H]2CC[C@H](Cn3c(=O)n(C)c4ccc(C)nc43)CC2)CC1 [Example 207] | 0.3 to 30 | 
COCC(=O)N1CCN(C(=O)[C@H]2CC[C@H](Cn3c(=O)n(C)c4ccc(OC)nc43)CC2)CC1 [Example 208] | 0.3 to 30 | 
COc1cccc(NC(=O)[C@H]2CC[C@H](Cn3c(=O)n(C)c4ccc(OC)nc43)CC2)c1 [Example 209] | 0.3 to 30 | 
COc1ccc2c(c1)n(C[C@H]1CC[C@H](C(=O)N3CCN(C(=O)c4cc(C)nn4C)CC3)CC1)c(=O)n2C [Example 210] | 0.3 to 30 | 
COc1ccc2c(c1)n(C[C@H]1CC[C@H](C(=O)N3CCN(C(=O)c4nccn4C)CC3)CC1)c(=O)n2C [Example 211] | 0.3 to 30 | 
